Legend:
Experiment in all cases: relative viability (nuclei count vs DMSO), 5 days (fraction); higher = more cells survive
BAM7 + Navitoclax = compound: CCOC1=CC=CC=C1N=NC2=C(NN(C2=O)C3=NC(=CS3)C4=CC=CC=C4)C [BAM7] + CC1(C)CCC(c2ccc(Cl)cc2)=C(CN2CCN(c3ccc(C(=O)NS(=O)(=O)c4ccc(N[C@H](CCN5CCOCC5)CSc5ccccc5)c(S(=O)(=O)C(F)(F)F)c4)cc3)CC2)C1 [Navitoclax] (partner 0.5 µM)
In short: (§1)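 Lung cancer cell lines in 1536-well plates got either a single drug or a fixed anchor-drug dose together with five library-drug doses (not always all listed) in √10 steps, by pin tool, on the day after seeding. Nuclei were counted after 5 days, and relative viability is the treated-to-vehicle ratio of nuclei counts. Values are medians of duplicate plates.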

BAM7 + Foretinib = compound: CCOC1=CC=CC=C1N=NC2=C(NN(C2=O)C3=NC(=CS3)C4=CC=CC=C4)C [BAM7] + COc1cc2c(Oc3ccc(NC(=O)C4(C(=O)Nc5ccc(F)cc5)CC4)cc3F)ccnc2cc1OCCCN1CCOCC1 [Foretinib] (partner 0.25 µM)
In short: as §1

[1] = compound: CCn1c(-c2nonc2N)nc2c(C#CC(C)(C)O)ncc(OC[C@H]3CCCNC3)c21
In short: (§2)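 Lung cancer cell lines in 1536-well plates were kept overnight at 37 °C, then pinned with five library-drug doses (not always all listed) spaced by √10 on vehicle-anchored plates. After 5 days without medium change, cells were fixed, permeabilised and Hoechst-stained in one step, imaged at 4×, and nuclei were counted with MetaXpress. Viability is treated-well nuclei divided by vehicle-well nuclei, taken as the median over plates. Plates passed only with control CV below 25% and at least one doubling.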

BAM7 = compound: CCOC1=CC=CC=C1N=NC2=C(NN(C2=O)C3=NC(=CS3)C4=CC=CC=C4)C [BAM7]
In short: as §2

Cell Line	relative viability (BAM7 + Navitoclax; first compound 0.5 µM)	relative viability (BAM7 + Navitoclax; first compound 5 µM)	relative viability (BAM7 + Navitoclax; first compound 15.81 µM)	relative viability (BAM7 + Navitoclax; first compound 50 µM)	relative viability (BAM7 + Foretinib; first compound 0.5 µM)	relative viability (BAM7 + Foretinib; first compound 5 µM)	relative viability (BAM7 + Foretinib; first compound 15.81 µM)	relative viability (BAM7 + Foretinib; first compound 50 µM)	relative viability ([1]; 0.01 µM)	relative viability ([1]; 0.03162 µM)	relative viability ([1]; 0.1 µM)	relative viability ([1]; 0.3162 µM)	relative viability ([1]; 1 µM)	relative viability (BAM7; 0.5 µM)	relative viability (BAM7; 5 µM)	relative viability (BAM7; 15.81 µM)	relative viability (BAM7; 50 µM)
NCI-H1793	0.401	0.565	0.437	0.411	0.679	0.619	0.727	0.928	0.936	0.879	0.751	0.859	0.942	0.963	0.838	0.899	1.03
NCI-H1734	0.877	0.948	0.861	0.771	0.849	1	0.779	0.825	0.95	0.978	0.893	0.932	0.86	1.03	1.07	1	1.1
LXF-289	0.96	1.04	0.93	0.907	1.04	0.968	0.986	0.961	1.03	0.991	1.03	0.972	1.11	1.06	1.07	1.01	0.929
H3255	0.473	0.51	0.525	0.577	0.774	0.868	0.806	0.858	0.924	0.949	0.998	0.856	0.904	0.99	1.02	0.963	0.995
201T	1.18	1.27	1.12	1.03	0.789	0.948	0.832	0.823	0.95	0.987	0.959	0.952	0.986	0.918	0.865	0.793	0.861
NCI-H2126	0.841	0.857	0.86	0.849	1.18	1.05	0.889	0.923	0.98	0.908	0.995	0.996	1.02	0.944	0.879	0.867	0.898
HOP-62	1.03	1.23	1.04	1.06	1.25	1.2	1.05	1.09	0.989	0.945	1.01	0.976	1.01	1.03	1.09	1.07	1.07
CAL-12T	1.1	1.2	1.14	1.26	1.22	1.18	1.09	1.23	1.12	0.997	0.94	0.973	0.997	1.05	1.01	0.952	1.07
NCI-H520	1.09	1.2	1.11	1.18	0.736	0.825	0.767	0.804	0.905	0.921	0.779	0.753	0.665	1	1.02	1.01	1.09
NCI-H1755	1.04	1.04	0.886	1.01	0.951	0.941	0.961	0.95	0.989	1.03	0.973	0.903	1.01	1.02	1.03	0.978	1.02
NCI-H2023	1.04	0.888	0.886	0.982	0.925	0.783	0.803	0.964	0.929	0.949	0.909	0.767	0.834	0.917	0.823	0.793	1.02
NCI-H2009	1.25	1.17	1.15	1.17	1.28	1.33	1.26	1.21	1	1	1.02	0.95	0.932	1.04	1.12	0.994	1.04
